Assay results published in patent publication US4886517A, “Dyeing composition for human hair containing an azo dye” (L'Oreal, priority 1985, dated 1989).

What was measured:
Salmonella strains = assay: Ames test (mutagenicity); assay type: biochemical
[1] = Solubility in 96° ethanol at 25° C.; assay type: physicochemical
Source text: The compound of formula (II) also has the advantage of having a good solubility in the usual dye carriers.

[2] = Dye fastness on hair, fastness to washing/shampooing; design: species or system human; conditions: compared to nitro benzene dyes

| Compound | mutagenicity (Ames test) (Salmonella strains; five strains of the Salmonella type, in the presence of a S-9 Mix microsomal activator) | solubility [1] [%] | stability to washing [2] | non-mutagenicity (Salmonella strains; strains and activation not stated for this compound) |
| --- | --- | --- | --- | --- |
| Nc1ccc(N=Nc2ccc(N(CCO)CCO)cc2)cc1 [(I)] | mutagenic to five strains of the Salmonella type | 1.3 | improved stability to washing |  |
| Cc1cc(N(CCO)CCO)ccc1N=Nc1ccc(N)cc1 [(II)] |  | 5.3 |  | non-mutagenicity has been demonstrated |
